Laboratory results reported in patent US11028061B2, “Modulators of myocyte lipid accumulation and insulin resistance and methods of use thereof” (Sanford Burnham Prebys Medical Discovery Institute, priority 2015, dated 2021).

Legend:
human skeletal myotubes [1] = assay: Quantitative lipidomic analyses and TAG biosynthesis pathway modeling; assay type: cell-based; conditions: oleate-loaded myotubes
Method: Quantitative lipidomic analyses was performed on human skeletal myotubes exposed to bovine albumin serum (BSA) or 100 μM oleate in the presence of DMSO vehicle (white bars) or 10 μM SBI-477 (black bars) for 24 hours.
Primary human myotubes were treated with BSA or 100 μM oleate with 10 μM SBI-477 or a vehicle control for 24 hours. The cells were added to […] in an Eppendorf tube and homogenized for 1 minute using a disposable soft tissue homogenizer. A 25 μL aliquot was used to determine the protein content (BCA protein assay kit, Thermo Scientific, Rockford, Ill.). The remaining homogenate was accurately transferred into a disposable glass culture test tube, and a mixture of lipid internal standards was added prior to lipid extraction for quantification of all reported lipid species. Lipid extraction was performed by using a modified Bligh and Dyer procedure as described previously (Wang and Han, 2014). Each lipid extract was resuspended into a volume of 500 μL of chloroform/methanol (1:1, v/v) per mg of protein and flushed with nitrogen, capped, and stored at −20° C. for lipid analysis. For ESI direct infusion analysis, lipid extract was further diluted to a final concentration of ˜500 fmol/μL, and the mass spectrometric analysis was performed on a QqQ mass spectrometer (Thermo TSQ VANTAGE, San Jose, Calif.) equipped with an automated nanospray device (TriVersa NanoMate, Advion Bioscience Ltd., Ithaca, N.Y.).
Intracellular TAG can be formed through reacylation of DAG species generated from several pathways including a de novo glycerolphosphate biosynthetic pathway that involves dephosphorylation of phosphatidic acid (DAGPA), reacylation of monoacylglycerol (DAGMAG), and to a lesser extent, hydrolysis of phosphatidyl inositol (DAGPI). […] This approach uses the individual TAG ion profile, as determined by mass spectrometry, to predict the relative contribution of each pathway to the overall cellular TAG pool. […]

H9c2 myotubes = assay: Glycogen synthesis in H9c2 myotubes; assay type: cell-based, Rat
human skeletal myotubes [2] = assay: Glycogen synthesis assay in human skeletal myotubes; assay type: cell-based; conditions: 24 hours
Method: Human skeletal myotubes were incubated with or without SBI-477 and then treated with or without insulin (100 nM) for 30 minutes. Glycogen synthesis rates were then measured as described (Halse, et al., J Biol Chem. 1999; 274(2):776-780). Briefly, differentiated primary human skeletal myotubes were treated with SBI-477 as described in the glucose uptake assay. Following incubation with SBI-477, cells were serum starved in α-MEM for 1 hour. The medium was replaced with α-MEM supplemented with [14C]-D-glucose (1 μCi/mL) for three hours and then treated in the absence or presence of insulin (100 nM) for 30 minutes. After incubation, the cells were washed three times with ice-cold PBS and then lysed in 30% potassium hydroxide (KOH) containing 6 mg/mL glycogen. For glycogen precipitation, the samples were added to ice-cold 100% ethanol for 18 hours at 4° C. The samples were centrifuged at 8,500×g for 10 minutes at 4° C. and the supernatant was discarded. After one wash with 75% ethanol, the glycogen precipitate was dissolved in distilled water. [14C]-D-glucose incorporated to glycogen was counted by liquid scintillation analyzer (PerkinElmer) and normalized to total protein.

human TXNIP promoter = assay: TXNIP promoter luciferase reporter assay in H9c2 myocytes; assay type: cell-based, rat; conditions: 24 hours
Method: Transient transfections were performed using Attractene (Qiagen) according to the manufacturer's protocols. A full length (1.5 kb) and two serial deletion (1.0 kb and 0.5 kb) reporters of the human TXNIP promoter were generously provided by Dr. Fumihiko Urano (Washington University School of Medicine). Mutation of the carbohydrate-responsive elements (ChoREs) of the reporters was generated by QuikChange II Site-Directed Mutagenesis kit (Agilent). H9c2 myoblast cells (ATCC) were cotransfected with 700 ng of the reporter and 25 ng of CMV promoter driven Renilla luciferase as a control for transfection efficiency. Eighteen hours after transfection, the cells were cultured in DMEM supplemented with 1% fetal bovine serum to induce differentiation for 4 days. SBI-477 was added during the last 24 hours at the indicated concentration. After compound incubation, luciferase activity was measured using the Dual-Glo luciferase assay system (Promega) according to the manufacturer's protocols.

MondoA = molecular target: T1, MondoA (Homo sapiens, UniProt Q9HAP2); assay: ChIP of MondoA occupation on TXNIP and ARRDC4 promoter ChoREs; assay type: cell-based; conditions: human skeletal myotubes
T1 construct: Proteins were immunoprecipitated by using anti-MondoA (Bethyl Laboratories; catalog number A303-195A); endogenous in cells; host or cells: differentiated primary human skeletal myotubes
T1 sequence (Q9HAP2 2-919 limits assumed): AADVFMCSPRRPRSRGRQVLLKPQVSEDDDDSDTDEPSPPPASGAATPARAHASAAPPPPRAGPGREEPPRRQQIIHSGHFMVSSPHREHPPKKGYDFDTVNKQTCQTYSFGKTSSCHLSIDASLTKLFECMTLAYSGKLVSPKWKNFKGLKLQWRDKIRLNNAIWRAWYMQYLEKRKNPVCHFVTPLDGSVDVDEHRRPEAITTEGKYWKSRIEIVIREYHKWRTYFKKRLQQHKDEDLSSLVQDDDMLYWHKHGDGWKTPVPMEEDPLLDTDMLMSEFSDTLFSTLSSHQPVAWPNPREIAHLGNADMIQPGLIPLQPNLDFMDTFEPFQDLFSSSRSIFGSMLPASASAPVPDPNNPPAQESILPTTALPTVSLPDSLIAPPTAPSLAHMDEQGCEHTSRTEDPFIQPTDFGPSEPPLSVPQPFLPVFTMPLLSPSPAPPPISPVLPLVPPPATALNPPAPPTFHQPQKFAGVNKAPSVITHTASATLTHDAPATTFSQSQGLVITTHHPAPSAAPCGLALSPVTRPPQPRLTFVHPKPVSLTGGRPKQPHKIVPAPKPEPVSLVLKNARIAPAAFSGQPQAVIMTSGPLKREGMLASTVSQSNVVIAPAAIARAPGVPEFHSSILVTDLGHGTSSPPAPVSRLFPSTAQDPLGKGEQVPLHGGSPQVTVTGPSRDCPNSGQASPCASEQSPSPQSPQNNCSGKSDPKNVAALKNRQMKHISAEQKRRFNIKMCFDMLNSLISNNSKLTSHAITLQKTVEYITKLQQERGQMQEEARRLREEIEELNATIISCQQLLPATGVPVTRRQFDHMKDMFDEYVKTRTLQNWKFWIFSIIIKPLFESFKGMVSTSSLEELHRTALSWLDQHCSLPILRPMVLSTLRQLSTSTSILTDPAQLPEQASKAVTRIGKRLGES
Method: ChIP assays were performed as previously described (Gan, et al., Genes Dev., 2011, 25(24):2619-2630). Briefly, differentiated human skeletal myotubes were cross-linked with 1% formaldehyde for 10 minutes at room temperature, and glycine was added to stop the cross-linking reaction. Cells were harvested and lysed. For chromatin fragmentation, sonication was performed using a Bioruptor (Diagenode). Proteins were immunoprecipitated by using anti-MondoA (Bethyl Laboratories; catalog number A303-195A) or IgG control (Sigma; catalog number 15006) overnight at 4° C. DNA fragments were purified using a QIAquick PCR purification kit (Qiagen) and quantified by a LightCycler® 480 Instrument II (Roche) with the specific primers listed in Table 1.

Occupation by MondoA of ChoREs in TXNIP and ARRDC4 promoter regions (MondoA): inhibited
SMILES: COc1ccc(-c2csc(NC(=O)c3ccc(OCC(=O)N4CCOCC4)c(OC)c3)n2)cc1 [Cpd. 7, 3-methoxy-N-(4-(4-methoxyphenyl)thiazol-2-yl)-4-(2-morpholino-2-oxoethoxy)benzamide]
Levels of ceramide and total sphingomyelin (human skeletal myotubes [1]): not significantly altered | DAG species levels (human skeletal myotubes [1]; 24 hour exposure): reduced | TAG species levels (human skeletal myotubes [1]; 24 hour exposure): reducing all TAG species measured | Insulin-stimulated glycogen synthesis compared to vehicle (H9c2 myotubes): increased insulin-stimulated glycogen synthesis | Glycogen synthesis rates (human skeletal myotubes [2]): enhanced by SBI-477 treatment in a dose dependent manner | TXNIP promoter activity (luciferase) (human TXNIP promoter): decreased promoter activity in a dose dependent manner
